# US7060657B2, “Combinations of cyclohexanedione oxime herbicides and safeners” (Bayer CropScience GmbH, priority 2002, dated 2006)
# Key:
# Format in all cases: in vivo
# [1] = tested on: Hordeum vulgare (summer barley); assay: Post-emergence field trials, selectivity in barley (Examples 2-4)
# Protocol: (§1) The numbers in the columns refer to the percentage damage to the crop or weed.
# (§2) Winter wheat was grown outdoors on plots under natural outdoor conditions, and seeds of typical harmful plants were laid out. Treatment with the herbicide (A), the safener (B) and the herbicide-safener combination (A)+(B) was carried out after the harmful plants had emerged and the wheat was in the growth stage between 3 and 5 leaves. The effect of the composition was assessed 28 days after treatment by scoring visually in comparison with untreated controls.
# (§3) Field trials were carried out according to the above Example 1 but using the crops barley and durum wheat and applying a mixture of clethodim and mefenpyr-diethyl.
# (§4) Field trials were carried out according to the above Example 2 and applying a mixture of clethodim and fenoxaprop-P-ethyl plus mefenpyr-diethyl.
# (§5) Field trials were carried out according to the above Example 2 and applying a mixture of tepraloxydim and mefenpyr-diethyl, or tepraloxydim and fenoxaprop-P-ethyl plus mefenpyr-diethyl.
# [2] = tested on: Triticum durum desf. (durum wheat); assay: Post-emergence field trials, selectivity in durum wheat (Examples 2-4)
# Protocol: as §1, §2, §3, §4, §5
# [3] = tested on: Triticum aestivum (winter wheat); assay: Post-emergence field trial, selectivity in winter wheat (Example 1); conditions: 28 days after treatment
# Protocol: as §1
# (§6) Post-Emergence Effect on Weeds and Selectivity in Winter Wheat (Field Trials)
# as §2
# Alopecurus myosuroides = assay: Post-emergence field trial, effect on weeds (Example 1); conditions: 28 days after treatment
# Protocol: as §1, §6, §2
# (§7) The percentage control of the weed species are shown in comparison with the expected values given in parentheses.
# Phalaris minor = assay: as above; conditions: 28 days after treatment
# Protocol: as §1, §6, §2, §7
# [4] = tested on: Triticum aestivum (winter wheat); assay: Post-emergence field trial on winter wheat (Example 5); conditions: 3-5 leaf growth stage, 21 days after treatment
# Protocol: as §2, with “The numbers in the columns refer to the percentage damage to the crop or weed. Winter” for “Winter”, “controls. Field trials were carried out according to the above Example 1 and applying a mixture of cycloxydim and fenoxaprop-P-ethyl+mefenpyr-diethyl to winter wheat and the weed Avena fatua at the 3–5 leaf growth stage. Assessment was 21 days after treatment.” for “controls.”
# Avena fatua = assay: Post-emergence field trial on weeds (Example 5); conditions: 3-5 leaf growth stage, 21 days after treatment
# Protocol: as §2, with “The numbers in the columns refer to the percentage damage to the crop or weed. Winter” for “Winter”, “controls. Field trials were carried out according to the above Example 1 and applying a mixture of cycloxydim and fenoxaprop-P-ethyl+mefenpyr-diethyl to winter wheat and the weed Avena fatua at the 3–5 leaf growth stage. Assessment was 21 days after treatment.” for “controls.”
structure (smiles),measurement,setting,value
"CCC(=NOC/C=C/Cl)C1=C(O)CC(C2CCOCC2)CC1=O (racemic) [(A7), (EZ)-(RS)-2-{1-[(2E)-3-chloroallyloxyimino]propyl}-3-hydroxy-5-perhydropyran-4-ylcyclohex-2-en-1-one]",Phytotox (%) on HORVS,[1]; 8.25 g ai/ha,78%
same,Phytotox (%) on TRZDU,[2]; 8.25 g ai/ha,70%
"CCSC(C)CC1CC(=O)C(/C(CC)=N/OC/C=C/Cl)=C(O)C1 (racemic) [(A4), (±)-2-[(E)-1-[(E)-3-chloroallyloxyimino]propyl]-5-[2-(ethylthio)propyl]-3-hydroxycyclohex-2-enone]",Phytotox (%) on HORVS,[1]; 7.5 g ai/ha,51%
same,Phytotox (%) on HORVS,[1]; 15 g ai/ha,67%
same,Phytotox (%) on TRZDU,[2]; 7.5 g ai/ha,32%
same,Phytotox (%) on TRZDU,[2]; 15 g ai/ha,56%
"CCOC(=O)C1=NN(c2ccc(Cl)cc2Cl)C(C)(C(=O)OCC)C1 (stereo not drawn) [(B1), ethyl 1-(2,4-dichlorophenyl)-5-(ethoxycarbonyl)-5-methyl-2-pyrazoline-3-carboxylate]",Phytotox (%) on TRZAW,[3]; 11 g a.i./ha,0%
same,Phytotox (%) on TRZAW,[3]; 45 g a.i./ha,0%
same,Phytotox (%) on ALOMY,Alopecurus myosuroides; 11 g a.i./ha,0%
same,Phytotox (%) on ALOMY,Alopecurus myosuroides; 45 g a.i./ha,0%
same,Phytotox (%) on PHAMI,Phalaris minor; 11 g a.i./ha,0%
same,Phytotox (%) on PHAMI,Phalaris minor; 45 g a.i./ha,0%
same,Phytotox (%) on HORVS,[1]; 100 g ai/ha,0%
same,Phytotox (%) on TRZDU,[2]; 100 g ai/ha,0%
same,Phytotox (%) on TRZAW,[4]; 71 g a.i./ha,0%
same,Phytotox (%) on AVEFA,Avena fatua; 71 g a.i./ha,0%
"CCCC(=NOCC)C1=C(O)CC(C2CCCSC2)CC1=O (racemic) [Compound A5, (±)-2-[1-(ethoxyimino)butyl]-3-hydroxy-5-thian-3-ylcyclohex-2-enone]",Phytotox (%) on TRZAW,[4]; 40 g a.i./ha,16%
same,Phytotox (%) on AVEFA,Avena fatua; 40 g a.i./ha,65%
"CCCC(=NOCC)C1=C(O)CC(CC(C)SCC)CC1=O (racemic) [Compound A6, (±)-(EZ)-2-(1-ethoxyiminobutyl)-5-[2-(ethylthio)propyl]-3-hydroxycyclohex-2-enone]",Phytotox (%) on TRZAW,[3]; 72 g a.i./ha,28%
same,Phytotox (%) on ALOMY,Alopecurus myosuroides; 72 g a.i./ha,70%
same,Phytotox (%) on PHAMI,Phalaris minor; 72 g a.i./ha,55%
